≈ marks a conversion by molar mass, not a printed value.
Settings: buffer; pH 7.4; 200.0 µM

solubility kinetic	Structure (SMILES)
> 41.3 µg/mL	COc1ccc(C(=O)NCc2ccc(C(=O)O)o2)cc1
> 41.3 µg/mL	COc1cccc(/C=C/C(=O)OCC(=O)NC2CC2)c1
> 40.5 µg/mL	O=C(NC1CCOc2ccccc21)c1ccc(=O)[nH]c1 (centres undefined)
0.8 µg/mL (≈ 2.6 µM)	O=[N+]([O-])c1ccccc1S(=O)(=O)c1ccccc1[N+](=O)[O-]
> 47.5 µg/mL	O=C(CNC(=O)c1ccc(Cl)cc1)N/N=C/c1cccnc1
33.6 µg/mL (≈ 111 µM)	C=C(C)Cn1c(N2CCCC2)nc2c1c(=O)n(C)c(=O)n2C
1.2 µg/mL (≈ 3.56 µM)	Brc1ccc(-c2csc(N3CCCCCC3)n2)cc1
40.3 µg/mL (≈ 136 µM)	CNS(=O)(=O)Cc1ccc2[nH]cc(CCN(C)C)c2c1
14.6 µg/mL (≈ 47.4 µM)	NC(=O)Cn1cc(C(=O)COc2ccccc2)c2ccccc21
< 0.7 µg/mL	COc1cc(C(=S)N2CCCC2)ccc1OCc1ccc(C)cc1
< 0.3 µg/mL	CSc1nc2ccccc2c(=O)n1Cc1ccc(F)cc1
14.5 µg/mL (≈ 50.5 µM)	O=[N+]([O-])c1ccc(CN2CCN(c3ccccc3)CC2)o1
> 41.9 µg/mL	Cc1ccc(C(=O)O)cc1NC(=O)C1=CSCCO1
20.5 µg/mL (≈ 60.2 µM)	CCCc1cnc(N2CCN(C(=O)c3ccc(OC)cc3)CC2)nc1
32.2 µg/mL (≈ 91.6 µM)	CCCNC(=O)C12CCC(C)(c3nc4cc(C)c(C)cc4nc31)C2(C)C (centres undefined)
> 49.1 µg/mL	CN(CCc1cnn(C)c1)Cc1cn(C)nc1-c1ccccc1F
41.7 µg/mL (≈ 121 µM)	CN(C(=O)COC(=O)c1cnc(Cl)c(Cl)c1)C1CCCCC1
> 43.8 µg/mL	C#CC[N+](C)(C)CC#Cc1ccc(C)cc1.[Br-]

solubility kinetic	Structure (SMILES)
40.7 µg/mL (≈ 124 µM)	CC(O)CNCCCCOc1ccc(OCc2ccccc2)cc1 (centres undefined)
46.5 µg/mL (≈ 147 µM)	O=C(COC(=O)C1CC2CCCC(C1)C2=O)Nc1ccccc1 (centres undefined)
53.1 µg/mL (≈ 143 µM)	Cc1ccc(NC2SC(=O)N(Cc3cccc(C(=O)O)c3)C2=O)c(C)c1 (centres undefined)
> 56.1 µg/mL	COc1ccccc1N1CCN(CC(=O)NCc2ccc(Cl)cc2)CC1
0.4 µg/mL (≈ 1.24 µM)	O=C(Nc1ccc(NC(=O)c2cccs2)cc1)c1cccnc1
4.1 µg/mL (≈ 12.2 µM)	Cc1ccc(C(=O)NC(C(=O)NC2CCCC2)c2ccccc2)cc1 (centres undefined)
2.7 µg/mL (≈ 9.35 µM)	COc1ccccc1/C=C/C(=O)Nc1cccnc1Cl
> 56.6 µg/mL	O=C(COc1ccccc1[N+](=O)[O-])NCC1(N2CCOCC2)CCCCC1
4.1 µg/mL (≈ 15.9 µM)	c1ccc(-c2csc(NC3CCCCC3)n2)cc1
> 44.4 µg/mL	Cc1ccc(-c2cc[n+](Cc3ccccc3)cc2)cc1.[Cl-]
< 0.7 µg/mL	O=C(Cc1ccc([N+](=O)[O-])cc1)OCc1c(F)cccc1Cl
25.6 µg/mL (≈ 124 µM)	COc1cccc(N=C(N)N=C(N)N)c1
> 53.2 µg/mL	NS(=O)(=O)c1cccc(NC(=O)COC(=O)CCC2CCCC2)c1
32.1 µg/mL (≈ 101 µM)	Nc1ccc(C2(c3ccc(N)cc3)OC(=O)c3ccccc32)cc1
> 51.5 µg/mL	CCCCOc1cc(C(=O)NCCN(CC)CC)c2ccccc2n1
> 61.3 µg/mL	Cc1ccc(NC(=O)COC(=O)c2ccco2)cc1S(=O)(=O)N1CCOCC1
> 46.7 µg/mL	OCCN1CCOCCOc2ccccc2OCCOCC1

The next lines start with the compound.

Structure (SMILES)	solubility kinetic
Cc1ccc(/C=C/C(=O)OCC(=O)c2ccc3c(c2)NC(=O)CO3)o1	17.8 µg/mL (≈ 52.2 µM)
Cc1ccccc1N=C1NC(=O)/C(=C/c2cccn2C)S1	3.3 µg/mL (≈ 11.1 µM)
COc1cc(S(=O)(=O)NCc2ccncc2)c(OC)cc1C	> 48.4 µg/mL
O=C1NC(Cc2ccccc2)C(=O)Nc2ccc(Br)cc21 (centres undefined)	15.7 µg/mL (≈ 45.5 µM)
CCOC(=O)COc1cccc2c(=O)n(CC(N)=O)ccc12	24.4 µg/mL (≈ 80.2 µM)
O=C(CCC(=O)OCC(=O)c1cccc([N+](=O)[O-])c1)NC1CCCCC1	> 54.4 µg/mL
O=C(Cn1c(=O)oc2ccccc21)NCCc1ccccc1	44 µg/mL (≈ 148 µM)
CC(=O)c1cccc(NCC(=O)c2ccc(C)c([N+](=O)[O-])c2)c1	13.7 µg/mL (≈ 43.9 µM)
COc1ccc(C(=O)COC(=O)c2ccc(N(C)C)cc2)cc1	< 0.7 µg/mL
O=c1c(Cc2c(F)cccc2Cl)c(O)ccn1C1CCCCCC1	< 0.7 µg/mL
COCc1cc(OC(=O)N(C)C)nc(-c2ccccc2)n1	> 43.1 µg/mL
Cc1ccc(S(=O)(=O)N(OCc2ccccc2)C(C)C(=O)O)cc1 (centres undefined)	52.1 µg/mL (≈ 149 µM)
CCn1c([N+](=O)[O-])nc2c1c(=O)[nH]c(=O)n2C	> 35.9 µg/mL
Fc1cc(F)c2nc(N3CCCC3)sc2c1	9.4 µg/mL (≈ 39.1 µM)
O=C(O)c1ccc(NCCc2ccc(Cl)cc2)c([N+](=O)[O-])c1	44.6 µg/mL (≈ 139 µM)
c1cc(OCCCN2CCCCC2)ccc1CN1CCCCC1	44.7 µg/mL (≈ 141 µM)
COc1ccc(N2Cc3ccc(OC)c(OC)c3C2=O)cc1	> 44.9 µg/mL
COc1ccc(C(C)=NNc2ccc([N+](=O)[O-])cc2S(=O)(=O)Nc2ccccc2C(=O)O)c(OC)c1	> 77.2 µg/mL
CC1CCC(N(C)C2CCN(C)CC2)CC1 (centres undefined)	22.4 µg/mL (≈ 99.8 µM)
CNS(=O)(=O)c1cc(Nc2ncnc3sccc23)ccc1C	2.5 µg/mL (≈ 7.48 µM)
CC(=O)c1ccc(NC(=S)N2CCCC2)cc1	35.4 µg/mL (≈ 143 µM)
Cc1ccc(NC(=O)C2CCCN2C(=O)OCc2ccccc2)c(C)c1 (centres undefined)	18.5 µg/mL (≈ 52.5 µM)
Cc1nn(CC(=O)N2CCc3ccccc32)c(C)c1S(=O)(=O)NC(C)(C)C	> 58.6 µg/mL
COc1ccc(N=c2ssnc2Cl)cc1	0.4 µg/mL (≈ 1.55 µM)

— PubChem BioAssay AID1996
